Consider 14 molecules from PubChem BioAssay (NCI).

Where “and” joins values, the source holds several entries; their conditions need not be identical. Equal values may be shown once.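 Cultured in 96-well plates, cells were exposed to test compound for 48 hours across five concentrations. GI50 marks 50% less growth. TGI denotes the concentration required for complete inhibition of growth.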 Where only a bound is given, the exact number is not on record here.

Test systems include HCT-15 colon; COLO 205 colon; SNB-19 CNS; HL-60(TB) leukemia; NCI-H460 lung; SK-OV-3 ovarian; SN12C renal; HOP-92 NSCLC; KM12 colon.
Common to all, as to experiment: DTP human tumour cell line panel, 48 h

`CCCN(CCC)c1c([N+](=O)[O-])cc(C(=O)N(CC)CC)cc1[N+](=O)[O-]`: the TGI (usually the concentration at which net growth stops) in the test with HCT-15 colon was 90.9 µM; with COLO 205 colon it was 32.7 µM; in the test on SNB-19 CNS it was > 100 µM; in the test on HL-60(TB) leukemia it was 50.8 µM; in the test with NCI-H460 lung, 60.2 µM; in the test with SK-OV-3 ovarian, 96 µM. Moreover, in the test on SN12C renal, the total growth inhibition concentration (TGI) is > 100 µM.

In the case of `O=C(c1ccc([N+](=O)[O-])cc1[N+](=O)[O-])N(/N=C/C=C/c1ccccc1)c1nnc(-c2ccccc2)c(-c2ccccc2)n1`, the total growth inhibition concentration (TGI) in the test with HCT-15 colon is > 100 µM; with COLO 205 colon it was > 100 µM; with SNB-19 CNS it was > 100 µM; in the test with HL-60(TB) leukemia, 51.6 µM; in the test with HOP-92 NSCLC, 51.2 µM; in the test on KM12 colon, > 100 µM. In addition, the TGI in the test with NCI-H460 lung, in the test on SK-OV-3 ovarian and in the test on SN12C renal was > 100 µM each time.

Turning to `CCOc1ccc(OCC(=O)O)c2c1CCCC2=O`, the total growth inhibition concentration (TGI) in the test on HCT-15 colon, in the test on COLO 205 colon, in the test with SNB-19 CNS, with HL-60(TB) leukemia, in the test on HOP-92 NSCLC and in the test with KM12 colon was > 100 µM throughout. In addition, the total growth inhibition concentration (TGI) with NCI-H460 lung, in the test with SK-OV-3 ovarian and in the test on SN12C renal was > 100 µM throughout.

For `COc1cc(OC)c(OC)cc1/C=N/NC(=O)N/N=C/c1cc(OC)c(OC)cc1OC`, the TGI in the test on HCT-15 colon, in the test with COLO 205 colon, in the test on SNB-19 CNS, with HOP-92 NSCLC, with KM12 colon and with NCI-H460 lung was > 100 µM in each case. Moreover, the TGI in the test on SK-OV-3 ovarian and with SN12C renal was > 100 µM in each case.

As for `COc1ccc(NC(=O)CSc2nnc(-c3ccc(NC(C)=O)cc3)o2)cc1`, the concentration for total growth inhibition (TGI) in the test on HCT-15 colon is 30.2 µM; in the test with COLO 205 colon, 36.8 µM; in the test with HL-60(TB) leukemia, 50.9 µM; with KM12 colon, 30 µM; in the test on NCI-H460 lung, 34 µM; in the test on SK-OV-3 ovarian it was > 100 µM. In the test on SN12C renal, this molecule had a TGI of 41.9 µM.

As to `COC(=N)c1csc(C2OC(CO)C(O)C2O)n1` (stereo not given), the TGI in the test on HCT-15 colon, in the test with COLO 205 colon, in the test on SNB-19 CNS, in the test with HL-60(TB) leukemia, in the test on HOP-92 NSCLC and in the test with KM12 colon was > 100 µM each time. Further, the total growth inhibition concentration (TGI) with NCI-H460 lung, with SK-OV-3 ovarian and with SN12C renal was > 100 µM each time.

As to `C[N+](C)(C)CC(=O)N/N=C(/Cc1cc(=O)oc2cc(O)ccc12)C(=O)Nc1ccc(Cl)cc1`, the TGI in the test with COLO 205 colon, with SNB-19 CNS, in the test with HL-60(TB) leukemia, with KM12 colon, in the test on NCI-H460 lung and with SK-OV-3 ovarian was > 100 µM each time. For the same molecule, in the test on SN12C renal, the total growth inhibition concentration (TGI) is > 100 µM.

Regarding `C=C(C)[C@@H]1CC[C@]2(CN)CC[C@]3(C)[C@H](CC[C@@H]4[C@@]5(C)CCCNC(C)(C)[C@@H]5CC[C@]43C)[C@@H]12`, the GI50 (commonly the concentration at which growth is held to half of that of the control) with HCT-15 colon was 1.19 µM; in the test on COLO 205 colon it was 1.4 µM; in the test on HOP-92 NSCLC, 1.69 µM; with NCI-H460 lung it was 1.24 µM; in the test on SK-OV-3 ovarian, 1.82 µM; in the test on SN12C renal, 1.75 µM. Further, the TGI with HCT-15 colon was 2.49 µM; in the test on COLO 205 colon, 2.91 µM; in the test on HOP-92 NSCLC, 3.28 µM; in the test with NCI-H460 lung, 2.67 µM; in the test on SK-OV-3 ovarian, 3.4 µM; in the test with SN12C renal it was 3.31 µM.

Take `O=S(=O)(OI(OI(OS(=O)(=O)C(F)(F)F)c1ccccc1)c1ccccc1)C(F)(F)F`: the TGI was > 100 µM in the test with HCT-15 colon; > 100 µM in the test on COLO 205 colon; > 100 µM in the test on SNB-19 CNS; 36.5 µM with HL-60(TB) leukemia; > 100 µM in the test with KM12 colon; > 100 µM with NCI-H460 lung. In the test with SN12C renal, the TGI is > 100 µM.

For the molecule `Cc1nc2c(N)ncnc2o1`, the total growth inhibition concentration (TGI) in the test on HCT-15 colon, in the test on COLO 205 colon, with SNB-19 CNS, in the test on HL-60(TB) leukemia, with HOP-92 NSCLC and with KM12 colon was > 100 µM each time. In addition, the total growth inhibition concentration (TGI) in the test on NCI-H460 lung, with SK-OV-3 ovarian and in the test with SN12C renal was > 100 µM in each case.

Take `O=Cc1cc2c(cc1-c1cc3c(cc1C=O)OCO3)OCO2`: the total growth inhibition concentration (TGI) in the test with HCT-15 colon, with COLO 205 colon, in the test on SNB-19 CNS, with HL-60(TB) leukemia, in the test with HOP-92 NSCLC and with KM12 colon was > 100 µM throughout. The concentration for total growth inhibition (TGI) in the test with NCI-H460 lung, with SK-OV-3 ovarian and in the test on SN12C renal was > 100 µM each time.

As to `CCCCCCCCc1cc2c(O)c(c1)Cc1cc(CCCCCCCC)cc(c1O)Cc1cc(CCCCCCCC)cc(c1O)Cc1cc(CCCCCCCC)cc(c1O)Cc1cc(CCCCCCCC)cc(c1O)Cc1cc(CCCCCCCC)cc(c1O)C2`, the TGI in the test on HCT-15 colon, in the test on COLO 205 colon, in the test on SNB-19 CNS, in the test on HL-60(TB) leukemia, in the test on HOP-92 NSCLC and with KM12 colon was > 100 µM each time. For the same molecule, the TGI in the test on NCI-H460 lung, in the test with SK-OV-3 ovarian and in the test on SN12C renal was > 100 µM throughout.

For `CCCCNCCCNCCCNC(=O)c1csc(-c2csc(CCNC(=O)C(NC(=O)C(C)C(O)C(C)NC(=O)C(NC(=O)c3nc(C(CC(N)=O)NCC(N)C(N)=O)nc(N)c3C)C(OC3OC(CO)C(O)C(O)C3OC3OC(CO)C(O)C(OC(N)=O)C3O)c3cnc[nH]3)C(C)O)n2)n1` (stereo not given), the GI50 in the test on HCT-15 colon was 2.12 µM; in the test with COLO 205 colon, 26.6 µM; in the test with HL-60(TB) leukemia, 3.4 µM; in the test with KM12 colon, > 50 µM; in the test with NCI-H460 lung it was 0.0396 µM; in the test with SK-OV-3 ovarian, 9.49 µM. Besides, the GI50 in the test on SN12C renal was 1.13 µM. The total growth inhibition concentration (TGI) in the test with COLO 205 colon was 50 µM and > 89.1 µM; with SNB-19 CNS, 50 µM and > 65.7 µM; with HL-60(TB) leukemia it was 50 µM and > 100 µM; in the test with HOP-92 NSCLC it was 1.79 µM; with KM12 colon it was > 100 µM; in the test with NCI-H460 lung, 5.22 µM and 13 µM. Further, the concentration for total growth inhibition (TGI) with SK-OV-3 ovarian was 50 µM and 36.2 µM; in the test on SN12C renal, 50 µM and 8.53 µM.

On to `O=C1C=C(c2c(O)ccc3ccccc23)c2cc(O)ccc2C1=O`, for which the TGI with HCT-15 colon stood at 33 µM; with COLO 205 colon, 40 µM; with SNB-19 CNS, 31.3 µM; with HOP-92 NSCLC, 31.9 µM; with KM12 colon, 31.5 µM; in the test on NCI-H460 lung, 44.7 µM. Besides, the concentration for total growth inhibition (TGI) amounted to 38.5 µM in the test on SK-OV-3 ovarian and 32.4 µM in the test with SN12C renal.
